Reference: article PMC7932537, “Quantitative profiling of protease specificity” (PLoS Computational Biology, 2021)

Legend:
MMP-9 = MMP-9 (Homo sapiens, UniProt P14780); assay: K(obs) of individual phage substrates (set of 1369); type: biochemical; details: MMP9, individual phage substrates, set of 1369 peptides
MMP-2 [1] = molecular target: T1, MMP-2 (Homo sapiens, UniProt P08253); assay: as above; type: biochemical; details: MMP2
T1 sequence (P08253 110-660): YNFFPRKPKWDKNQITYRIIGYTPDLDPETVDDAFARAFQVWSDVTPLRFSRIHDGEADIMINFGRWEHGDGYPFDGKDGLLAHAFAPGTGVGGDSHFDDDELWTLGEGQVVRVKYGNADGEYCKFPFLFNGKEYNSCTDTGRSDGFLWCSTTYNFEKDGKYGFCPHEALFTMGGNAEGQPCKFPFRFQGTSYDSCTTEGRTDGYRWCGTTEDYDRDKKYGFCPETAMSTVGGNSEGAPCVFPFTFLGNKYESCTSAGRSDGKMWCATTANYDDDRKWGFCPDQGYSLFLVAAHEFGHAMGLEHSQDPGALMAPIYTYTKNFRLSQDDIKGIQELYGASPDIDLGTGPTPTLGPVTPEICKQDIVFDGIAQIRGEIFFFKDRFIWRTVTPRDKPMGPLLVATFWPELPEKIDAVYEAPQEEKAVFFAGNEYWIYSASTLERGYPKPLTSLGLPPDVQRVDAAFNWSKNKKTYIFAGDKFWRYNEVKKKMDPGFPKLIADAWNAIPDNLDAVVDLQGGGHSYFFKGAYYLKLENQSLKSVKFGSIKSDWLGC

MMP-2 [2] = assay: Substrate phage display with NGS: relative probability (RP) of P3-P1' tetramer clusters; type: biochemical, human; details: MMP2 - no binning, redundant tetramers have been averaged out
[3] = '-' marks the cleavage position (P1-P1')
[4] = individual phage substrates, set of 1369 peptides, cleavage position marked by '-' in the sequence
[5] = dash in sequence marks cleavage position
[6] = individual phage substrate from the set of 1369 peptides, cleavage position marked by the dash in the sequence
[7] = average relative probability of the P3-P1' tetramer

MMP-9, sequence (P14780 94-707): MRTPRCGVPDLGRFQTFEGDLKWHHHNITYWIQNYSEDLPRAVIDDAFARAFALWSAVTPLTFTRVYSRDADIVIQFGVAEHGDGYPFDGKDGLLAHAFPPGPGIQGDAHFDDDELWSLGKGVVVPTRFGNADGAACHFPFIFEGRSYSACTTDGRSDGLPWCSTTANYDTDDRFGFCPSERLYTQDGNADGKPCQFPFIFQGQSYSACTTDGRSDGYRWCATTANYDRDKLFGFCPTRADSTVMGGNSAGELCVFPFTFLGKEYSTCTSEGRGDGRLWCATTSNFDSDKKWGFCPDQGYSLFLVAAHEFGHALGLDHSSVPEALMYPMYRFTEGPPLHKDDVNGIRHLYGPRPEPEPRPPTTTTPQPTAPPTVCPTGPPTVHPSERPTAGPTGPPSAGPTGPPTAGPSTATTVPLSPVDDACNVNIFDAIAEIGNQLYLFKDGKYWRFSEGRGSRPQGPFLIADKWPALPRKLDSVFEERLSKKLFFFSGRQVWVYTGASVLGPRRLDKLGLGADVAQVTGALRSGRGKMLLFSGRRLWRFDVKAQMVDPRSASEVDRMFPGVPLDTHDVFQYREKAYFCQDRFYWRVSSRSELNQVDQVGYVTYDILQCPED

Substance | Kobs (MMP-9; [3]) [M⁻¹ s⁻¹] | Kobs (MMP-2 [1]; [4]) [M⁻¹ s⁻¹] | Kobs (MMP-9; [5]) [M⁻¹ s⁻¹] | Kobs (MMP-2 [1]; [6]) [M⁻¹ s⁻¹] | also measured
AGLDL-LTASG | 0 | 0 |  |  | 
AIYRS-MTASG | 2916.17 | 3344.37 |  |  | 
AMAHS-LTASG |  |  | 2996.69 | 7015.91 | 
ANAMN-LTASG | 2761.81 | 1513.13 |  |  | 
APVYA-LTASG | 12792.1 | 6131.32 |  |  | 
ARAQH-ITASG |  |  | 912.511 | 912.511 | 
ARVGV-LTASG |  |  | 0 | 84.609 | 
ATASF-LTASG | 27.918 | 5889.62 |  |  | 
AVTYA-LTASG | 2837.92 | 1071.29 |  |  | 
CCAMG-LTASG | 4470.66 | 2218.08 |  |  | 
CCSLA-LTASG |  |  | 386.839 | 551.253 | 
CLLAS-LTASG |  |  | 0 | 6396.07 | 
DAPYF-LTASG |  |  | 8321.48 | 5667.28 | 
DILRH-LTASG | 2409.72 | 5889.62 |  |  | 
DLPHC-LTASG |  |  | 355.093 | 619.843 | 
DRIRH-LTASG | 3964.21 | 6688.74 |  |  | 
DVAFH-LTASG | 1283.43 | 1925.41 |  |  | 
DYARA-MTASG |  |  | 3438.54 | 4082.43 | 
EAVGN-LTASG |  |  | 585.336 | 12792.1 | 
EHNLP-LTASG | 0 | 799.117 |  |  | 
EKVML-MTASG | 27.918 | 0 |  |  | 
ELAWH-LTASG |  |  | 1373.05 | 1981.53 | 
ELPNF-LTASG | 231.616 | 951.362 |  |  | 
ELYAS-LTASG | 0 | 12792.1 |  |  | 
EPIYN-LTASG | 2761.81 | 619.843 |  |  | 
EQLAN-MTASG | 386.839 | 7386.83 |  |  | 

Substance | Kobs (MMP-9; [3]) [M⁻¹ s⁻¹] | Kobs (MMP-2 [1]; [4]) [M⁻¹ s⁻¹] | Kobs (MMP-9; [5]) [M⁻¹ s⁻¹] | Kobs (MMP-2 [1]; [6]) [M⁻¹ s⁻¹] | also measured
ERIWA-LTASG |  |  | 3344.37 | 1465.65 | 
ERLLH-LTASG |  |  | 231.616 | 2837.92 | 
ERPGW-LTASG | 3438.54 | 7386.83 |  |  | 
ESAQM-ITASG | 0 | 142.481 |  |  | 
ESPSF-LTASG |  |  | 3741.87 | 12792.1 | 
EVSQH-LTASG | 551.253 | 690.17 |  |  | 
EVTMW-LTASG | 951.362 | 551.253 |  |  | 
FAAYS-LTASG | 12792.1 | 5667.28 |  |  | 
FHIAH-LTASG | 3850.82 | 12792.1 |  |  | 
FIARA-LTASG | 12792.1 | 12792.1 |  |  | 
FMMGN-MTASG | 84.609 | 12792.1 |  |  | 
FMYSH-LTASG |  |  | 0 | 7815.03 | 
FRVEP-LTASG |  |  | 261.974 | 323.705 | 
FTPLN-MTASG | 10866.7 | 12792.1 |  |  | 
FTVHM-LTASG |  |  | 1513.13 | 1418.96 | 
GAAWG-LNTAS |  |  | 836.403 | 201.585 | 
GALDW-MSTAS | 0 | 0 |  |  | 
GAPAF-LKTAS | 10866.7 | 12792.1 |  |  | 
GAPDQ-LSTAS |  |  | 323.705 | 142.481 | 
GAPSS-LRTAS | 12792.1 | 12792.1 |  |  | 
GCAQE-LTTAS |  |  | 27.918 | 113.394 | 
GCLMA-LTTAS | 2837.92 | 6131.32 |  |  | 
GDVRH-IFTAS |  |  | 261.974 | 231.616 | 
GEAWH-LFTAS |  |  | 355.093 | 292.668 | 
GEIAS-LSTAS |  |  | 84.609 | 7386.83 | 
GEVWR-LHTAS |  |  | 0 | 56.119 | 

Substance | Kobs (MMP-9; [3]) [M⁻¹ s⁻¹] | Kobs (MMP-2 [1]; [4]) [M⁻¹ s⁻¹] | Kobs (MMP-9; [5]) [M⁻¹ s⁻¹] | Kobs (MMP-2 [1]; [6]) [M⁻¹ s⁻¹] | also measured
GFAIS-MVTAS | 84.609 | 113.394 |  |  | 
GFAKH-LLTAS |  |  | 201.585 | 56.119 | 
GFHRS-IRTAS |  |  | 0 | 292.668 | 
GGASG-LMTAS | 84.609 | 451.441 |  |  | 
GGHQW-LRTAS |  |  | 0 | 2687.73 | 
GGLGM-MLTAS | 0 | 836.403 |  |  | 
GGSGA-LHRPG |  |  | 0 | 1071.29 | 
GGSGA-LIAND | 0 | 874.197 |  |  | 
GGSGA-LQRLP | 0 | 113.394 |  |  | 
GGSGA-LQVPT | 56.119 | 0 |  |  | 
GGSGA-LREKV |  |  | 292.668 | 201.585 | 
GGSGA-LRVQL | 0 | 231.616 |  |  | 
GGSGA-LTMPL | 171.876 | 0 |  |  | 
GGSGA-LTSRF |  |  | 0 | 4613.14 | 
GGSGA-YTMVA |  |  | 551.253 | 726.013 | 
GGSGE-LRLSN | 0 | 56.119 |  |  | 
GGSGF-LMSWM | 1112.44 | 12792.1 |  |  | 
GGSGF-LVAKA |  |  | 0 | 1327.88 | 
GGSGF-LVRSL | 10866.7 | 9740.44 |  |  | 
GGSGM-LLMKQ | 0 | 0 |  |  | 
GGSGN-LIYWN | 142.481 | 231.616 |  |  | 
GGSGN-LTFLA |  |  | 0 | 451.441 | 
GGSGN-LVRVR |  |  | 0 | 142.481 | 
GGSGP-LHQTK |  |  | 2218.08 | 1154.21 | 
GGSGP-LMLPF | 517.582 | 3964.21 |  |  | 
GGSGP-LRARL |  |  | 0 | 1816.46 | 

Substance | Kobs (MMP-9; [3]) [M⁻¹ s⁻¹] | Kobs (MMP-2 [1]; [4]) [M⁻¹ s⁻¹] | Kobs (MMP-9; [5]) [M⁻¹ s⁻¹] | Kobs (MMP-2 [1]; [6]) [M⁻¹ s⁻¹] | also measured
GGSGQ-LFNVG |  |  | 762.325 | 4470.66 | 
GGSGQ-LLATK |  |  | 0 | 619.843 | 
GGSGQ-LLLRN | 0 | 0 |  |  | 
GGSGQ-LRREY |  |  | 355.093 | 355.093 | 
GGSGR-LKWNL |  |  | 690.17 | 551.253 | 
GGSGR-LLQFL | 0 | 8321.48 |  |  | 
GGSGR-LMYER |  |  | 0 | 0 | 
GGSGR-LNMRL | 0 | 0 |  |  | 
GGSGR-LRLAI |  |  | 0 | 0 | 
GGSGR-LTLKW |  |  | 0 | 0 | 
GGSGR-LVLRV | 0 | 0 |  |  | 
GGSGR-LVMTY |  |  | 261.974 | 142.481 | 
GGSGR-LVVRL | 0 | 113.394 |  |  | 
GGSGS-LNQRL |  |  | 0 | 585.336 | 
GGSGS-LRLFE | 0 | 0 |  |  | 
GGSGS-LSVWK |  |  | 0 | 0 | 
GGSGS-LTFNT |  |  | 0 | 0 | 
GHAHH-LYTAS |  |  | 201.585 | 171.876 | 
GHLAS-QRTAS | 0 | 1870.4 |  |  | 
GHPWL-QRTAS | 56.119 | 0 |  |  | 
GIAMN-ILTAS | 990.764 | 0 |  |  | 
GISMY-LTASG | 0 | 690.17 |  |  | 
YSHL |  |  |  |  | avg_RP (MMP-2 [2]; average relative probability (RP) of the P3-P1' tetramer): 14.1084
YSNL |  |  |  |  | avg_RP (MMP-2 [2]; [7]): 25.2832
YYGL |  |  |  |  | avg_RP (MMP-2 [2]; [7]): 0.142
